Converted amounts (≈) assume the structure as drawn.
Assays:
[1] = system: Staphylococcus aureus; experiment: Antibacterial activity against Staphylococcus aureus MTCC 96 at 4 mg/ml after 24 hr by agar well diffusion method; assay type: functional; conditions: MTCC 96, 24 h, read-out: DIZ
[2] = system: Bacillus subtilis; experiment: Antibacterial activity against Bacillus subtilis MTCC 121 by NCCLS broth macrodilution method; assay type: functional
[3] = system: Staphylococcus aureus; experiment: Antibacterial activity against Staphylococcus aureus MTCC 96 by NCCLS broth macrodilution method; assay type: functional
[4] = system: Bacillus subtilis; experiment: Antibacterial activity against Bacillus subtilis MTCC 121 at 4 mg/ml after 24 hr by agar well diffusion method; assay type: functional; conditions: MTCC 121, 24 h, read-out: DIZ
[5] = system: Pseudomonas aeruginosa; experiment: microbe, parasite or virus in culture; conditions: MTCC 741, 24 h, read-out: DIZ
[6] = species: Rattus norvegicus; experiment: animal or person; conditions: Wistar albino, ip, read-out: INH
[7] = system: Rattus norvegicus; experiment: Anti-inflammatory activity in Rattus norvegicus Wistar albino (rat) assessed as inhibition of carrageenan-induced paw edema at 10 mg/kg, ip administered for 30 min prior to carrageenan challenge measured at 3 hr relative to control; assay type: functional; conditions: route intraperitoneal
[8] = system: Rattus norvegicus; experiment: Anti-inflammatory activity in Rattus norvegicus Wistar albino (rat) assessed as inhibition of carrageenan-induced paw edema at 10 mg/kg, ip administered for 30 min prior to carrageenan challenge measured at 4 hr relative to control; assay type: functional; conditions: route intraperitoneal
[9] = species: Rattus norvegicus; experiment: animal or person; conditions: Wistar albino, ip, read-out: INH; remark: listed apart in the source

Compound | zone of inhibition at 4000 µg/mL [1] [mm] | MIC [2] [µg/mL] | MIC [3] [µg/mL] | zone of inhibition at 4000 µg/mL [4] [mm] | zone of inhibition at 4000 µg/mL [5] [mm] | inhibition in vivo at 10 mg/kg [6] [%] | inhibition in vivo at 10 mg/kg [7] [%] | inhibition in vivo at 10 mg/kg [8] [%] | inhibition in vivo at 10 mg/kg [9] [%]
O=C(O)c1cn(C2CC2)c2cc(N3CCNCC3)c(F)cc2c1=O [CIPROFLOXACIN] | 26.3 | 5 (≈ 15.1 µM) | 5 (≈ 15.1 µM) | 25.6 | 23.3 |  |  |  | 
COc1ccc2c(c1)c(CC(=O)O)c(C)n2C(=O)c1ccc(Cl)cc1 [INDOMETHACIN] |  |  |  |  |  | 79 | 78 | 78 | 41
